The target in the assay is human CB1 receptor (Homo sapiens, UniProt P21554). Put plainly: cell-based. As to conditions: for inverse agonist mark, human CB1 receptor: asterisk at the compound number.

Consider 24 compounds from US7960377B2 (priority 2008, dated 2011).

Where only a bound is given, the exact number is not on record here.

Sequence of human CB1 receptor (P21554 whole entry): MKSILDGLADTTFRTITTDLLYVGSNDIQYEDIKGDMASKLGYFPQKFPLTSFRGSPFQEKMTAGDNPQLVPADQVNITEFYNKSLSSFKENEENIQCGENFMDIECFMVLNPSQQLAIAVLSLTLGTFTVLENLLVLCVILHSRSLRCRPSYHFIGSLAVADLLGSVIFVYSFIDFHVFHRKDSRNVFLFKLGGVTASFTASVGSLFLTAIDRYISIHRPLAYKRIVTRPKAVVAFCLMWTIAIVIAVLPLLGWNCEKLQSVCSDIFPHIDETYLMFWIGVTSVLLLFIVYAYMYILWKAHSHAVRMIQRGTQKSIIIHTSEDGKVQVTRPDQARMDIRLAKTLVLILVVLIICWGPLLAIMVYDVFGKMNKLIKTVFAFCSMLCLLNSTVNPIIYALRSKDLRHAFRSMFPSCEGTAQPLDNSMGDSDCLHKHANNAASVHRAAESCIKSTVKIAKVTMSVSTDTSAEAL

Turning to `Cc1cccc(S(=O)(=O)N2CCOc3ncc(C(=O)NC(C)(C)C)cc32)c1` [Example 86, N-tert-butyl-1-(m-tolylsulfonyl)-2,3-dihydro-1H-pyrido[2,3-b][1,4]oxazine-7-carboxamide], the half-maximal effective concentration (EC50) is more than 30 µM.

Regarding `CC(C)(C)NC(=O)c1cnc2c(c1)N(S(=O)(=O)c1ccc(Oc3ccccc3)cc1)CCO2` [Example 93, N-tert-butyl-1-(4-phenoxyphenylsulfonyl)-2,3-dihydro-1H-pyrido[2,3-b][1,4]oxazine-7-carboxamide], the “inverse agonist mark, human CB1 receptor” value is listed as 2, 3, 5, 7, 8, 10, 39, 58, 61*, 69, 93*, 101, 102, 109, 110, 111, 112,.

On to `COc1ccc(S(=O)(=O)N2CCOc3ncc(C(=O)NC(C)(C)CO)cc32)cc1Cl` [Example 100, 1-(3-chloro-4-methoxyphenylsulfonyl)-N-(1-hydroxy-2-methylpropan-2-yl)-2,3-dihydro-1H-pyrido[2,3-b][1,4]oxazine-7-carboxamide], for which the EC50 is more than 30 µM.

Compound `COc1ccc(S(=O)(=O)N2CCOc3ncc(C(=O)NCC(C)(C)O)cc32)cc1F` [Example 105] yielded an EC50 of more than 30 µM.

The compound `CC(C)(O)CNC(=O)c1cnc2c(c1)N(S(=O)(=O)c1ccc(F)cc1F)CCO2` [Example 106, 1-(2,4-difluorophenylsulfonyl)-N-(2-hydroxy-2-methylpropyl)-2,3-dihydro-1H-pyrido[2,3-b][1,4]oxazine-7-carboxamide] had an EC50 of more than 30 µM.

`COc1ccc(S(=O)(=O)N2CCOc3ncc(C(=O)NCC(C)(C)O)cc32)c(F)c1` [Example 107]: the EC50 was more than 30 µM.

Consider `CC(C)(O)CNC(=O)c1cnc2c(c1)N(S(=O)(=O)c1ccc(F)c(Cl)c1)CCO2` [Example 108, 1-(3-chloro-4-fluorophenylsulfonyl)-N-(2-hydroxy-2-methylpropyl)-2,3-dihydro-1H-pyrido[2,3-b][1,4]oxazine-7-carboxamide], for which the EC50 is more than 30 µM.

`O=C(NCCO)c1cnc2c(c1)N(S(=O)(=O)c1ccc(Cl)c(Cl)c1)CCO2` [Example 114, 1-(3,4-dichlorophenyl-sulfonyl)-N-(2-hydroxyethyl)-2,3-dihydro-1H-pyrido[2,3-b][1,4]oxazine-7-carboxamide] registered an EC50 of more than 30 µM.

Turning to `CN(CCO)C(=O)c1cnc2c(c1)N(S(=O)(=O)c1ccc(Cl)c(Cl)c1)CCO2` [Example 120, 1-(3,4-dichlorophenyl-sulfonyl)-N-(2-hydroxy-ethyl)-N-methyl-2,3-dihydro-1H-pyrido[2,3-b][1,4]oxazine-7-carboxamide], the EC50 was more than 30 µM.

With `O=C(c1cnc2c(c1)N(S(=O)(=O)c1ccc(Cl)c(Cl)c1)CCO2)N1CCC[C@@H]1CO` [Example 122, (R)-(1-(3,4-dichlorophenyl-sulfonyl)-2,3-dihydro-1H-pyrido[2,3-b][1,4]oxazin-7-yl)(2-(hydroxymethyl)pyrrolidin-1-yl)methanone], the EC50 was more than 30 µM.

As to `CN1CCN(C(=O)c2cnc3c(c2)N(S(=O)(=O)c2ccc(Cl)c(Cl)c2)CCO3)CC1` [Example 123, (1-(3,4-dichlorophenyl-sulfonyl)-2,3-dihydro-1H-pyrido [2,3-b][1,4]oxazin-7-yl)(4-methylpiperazin-1-yl)methanone], the EC50 was more than 30 µM.

`O=C(c1cnc2c(c1)N(S(=O)(=O)c1ccc(Cl)c(Cl)c1)CCO2)N1CCC(F)(F)C1` [Example 126, (1-(3,4-dichlorophenyl-sulfonyl)-2,3-dihydro-1H-pyrido[2,3-b][1,4]oxazin-7-yl)(3,3-difluoro-pyrrolidin-1-yl)methanone] registered a half-maximal effective concentration (EC50) of more than 30 µM.

For `O=C(c1cnc2c(c1)N(S(=O)(=O)c1ccc(Cl)c(Cl)c1)CCO2)N1CCC(O)CC1` [Example 127, (1-(3,4-dichlorophenyl-sulfonyl)-2,3-dihydro-1H-pyrido[2,3-b][1,4]oxazin-7-yl)(4-hydroxypiperidin-1-yl)methanone], the EC50 is more than 30 µM.

`O=C(c1cnc2c(c1)N(S(=O)(=O)c1ccc(Cl)c(Cl)c1)CCO2)N1CC(F)(F)C1` [Example 128, (1-(3,4-dichlorophenyl-sulfonyl)-2,3-dihydro-1H-pyrido[2,3-b][1,4]oxazin-7-yl)(3,3-difluoroazetidin-1-yl)methanone] displayed an EC50 of more than 30 µM.

In turn, `COC1CN(C(=O)c2cnc3c(c2)N(S(=O)(=O)c2ccc(Cl)c(Cl)c2)CCO3)C1` [Example 129, (1-(3,4-dichlorophenyl-sulfonyl)-2,3-dihydro-1H-pyrido[2,3-b][1,4]oxazin-7-yl)(3-methoxyazetidin-1-yl)methanone] gave an EC50 of more than 30 µM.

For `O=C(c1cnc2c(c1)N(S(=O)(=O)c1ccc(Cl)c(Cl)c1)CCO2)N1CCC1` [Example 130, azetidin-1-yl(1-(3,4-dichlorophenylsulfonyl)-2,3-dihydro-1H-pyrido[2,3-b][1,4]oxazin-7-yl)methanone], the “inverse agonist mark, human CB1 receptor” value was 130*, 136, 141, 142, 149, 156, 157, 163, 164, 168, 173, 183, 195,.

`CCC(C)(C)NC(=O)c1cnc2c(c1)N(S(=O)(=O)N(C)C)CCO2` [Example 143, 1-(N,N-dimethyl-sulfamoyl)-N-tert-pentyl-2,3-dihydro-1H-pyrido[2,3-b][1,4]oxazine-7-carboxamide] had an EC50 of more than 30 µM.

`CN(C)S(=O)(=O)N1CCOc2ncc(C(=O)NC(C)(C)CO)cc21` [Example 144, 1-(N,N-dimethyl-sulfamoyl)-N-(1-hydroxy-2-methylpropan-2-yl)-2,3-dihydro-1H-pyrido[2,3-b][1,4]oxazine-7-carboxamide] registered a concentration for a half-maximal effect (EC50) of more than 30 µM.

In the case of `CN(C)S(=O)(=O)N1CCOc2ncc(C(=O)NC(C)(C)C)cc21` [Example 145, N-tert-butyl-1-(N,N-dimethylsulfamoyl)-2,3-dihydro-1H-pyrido[2,3-b][1,4]oxazine-7-carboxamide], the EC50 was more than 30 µM.

Turning to `CC(C)(CN1CCOCC1)NC(=O)c1cnc2c(c1)N(S(=O)(=O)N1CCCCC1)CCO2` [Example 147, N-(2-methyl-1-morpholinopropan-2-yl)-1-(piperidin-1-ylsulfonyl)-2,3-dihydro-1H-pyrido[2,3-b][1,4]oxazine-7-carboxamide], the EC50 is more than 30 µM.

Regarding `CCC(C)(C)NC(=O)c1cnc2c(c1)N(S(=O)(=O)N1CCN(C)CC1)CCO2` [Example 175, 1-(4-methylpiperazin-1-ylsulfonyl)-N-tert-pentyl-2,3-dihydro-1H-pyrido[2,3-b][1,4]oxazine-7-carboxamide], the EC50 was more than 30 µM.

Turning to `CC(C)(C)NC(=O)c1cnc2c(c1)N(S(=O)(=O)N1CCC(N3CCCC3)CC1)CCO2` [Example 176, N-tert-butyl-1-(4-(pyrrolidin-1-yl)piperidin-1-ylsulfonyl)-2,3-dihydro-1H-pyrido[2,3-b][1,4]oxazine-7-carboxamide], the EC50 was more than 30 µM.

In the case of `CC(C)(CO)NC(=O)c1cnc2c(c1)N(S(=O)(=O)NCc1ccccc1)CCO2` [Example 179, 1-(N-benzylsulfamoyl)-N-(1-hydroxy-2-methylpropan-2-yl)-2,3-dihydro-1H-pyrido[2,3-b][1,4]oxazine-7-carboxamide], the EC50 was more than 30 µM.

The compound `CC(C)CNS(=O)(=O)N1CCOc2ncc(C(=O)NC(C)(C)CO)cc21` [Example 181, N-(1-hydroxy-2-methylpropan-2-yl)-1-(N-isobutylsulfamoyl)-2,3-dihydro-1H-pyrido[2,3-b][1,4]oxazine-7-carboxamide] came in with an EC50 of more than 30 µM.
